Values of other authors, collected in patent US8071607B2, “Mnk1 or Mnk2 inhibitors” (Boehringer Ingelheim International GmbH, priority 2004, dated 2011).

Experiments:
human Mnk2 protein = human Mnk2 protein (Homo sapiens, UniProt Q9HBH9); conditions: described in WO 02/103361
Mnk1 = Mnk1 (Homo sapiens, UniProt Q9BUB5); conditions: cell culture cells transfected with Mnk1
Mnk2 (Mnk2a or Mnk2b) = conditions: cell culture cells transfected with Mnk2 (Mnk2a or Mnk2b)

human Mnk2 protein, sequence (Q9HBH9 whole entry): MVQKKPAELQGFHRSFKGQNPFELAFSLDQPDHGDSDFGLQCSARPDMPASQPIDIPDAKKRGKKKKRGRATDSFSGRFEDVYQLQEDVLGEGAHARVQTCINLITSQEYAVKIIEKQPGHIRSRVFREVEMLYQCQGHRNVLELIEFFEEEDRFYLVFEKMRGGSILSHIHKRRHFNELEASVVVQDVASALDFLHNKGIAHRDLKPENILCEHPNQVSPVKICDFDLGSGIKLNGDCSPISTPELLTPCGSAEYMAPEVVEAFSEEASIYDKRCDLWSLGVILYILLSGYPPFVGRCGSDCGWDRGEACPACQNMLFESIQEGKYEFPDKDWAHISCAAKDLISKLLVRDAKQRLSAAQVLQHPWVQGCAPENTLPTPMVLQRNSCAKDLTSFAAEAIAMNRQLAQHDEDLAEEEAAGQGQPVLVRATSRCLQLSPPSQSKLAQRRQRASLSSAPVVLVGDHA
Mnk1, sequence (Q9BUB5 whole entry): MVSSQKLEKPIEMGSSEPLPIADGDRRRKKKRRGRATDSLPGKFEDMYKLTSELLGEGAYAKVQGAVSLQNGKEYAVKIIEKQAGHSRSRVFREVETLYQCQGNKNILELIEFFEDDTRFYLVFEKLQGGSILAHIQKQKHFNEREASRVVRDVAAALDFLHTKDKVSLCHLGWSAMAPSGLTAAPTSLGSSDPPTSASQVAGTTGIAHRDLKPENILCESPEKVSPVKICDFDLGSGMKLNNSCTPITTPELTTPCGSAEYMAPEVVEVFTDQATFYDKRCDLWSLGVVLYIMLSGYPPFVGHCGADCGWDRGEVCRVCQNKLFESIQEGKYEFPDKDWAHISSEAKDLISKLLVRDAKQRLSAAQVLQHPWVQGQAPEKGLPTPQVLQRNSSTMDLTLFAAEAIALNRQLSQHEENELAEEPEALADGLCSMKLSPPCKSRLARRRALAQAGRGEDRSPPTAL

SMILES | binding to the human Mnk2 protein (human Mnk2 protein) | phosphorylated eIF4E (Mnk1) | phosphorylated eIF4E (Mnk2 (Mnk2a or Mnk2b))
COC(=O)c1ccc(O)cc1 [4-hydroxybenzoic acid methyl ester] | binds |  | 
Nc1ncnc2n[nH]c(Nc3ccc(F)cc3)c12 [CGP57380] |  | strong reduction | strong reduction
